Measurements published in ChEMBL document CHEMBL4321883 (J Med Chem, 2020).
pIC50: −log10 of the molar value. The source made the active and inactive calls. The calls are words filed in the database; no cut-off is given here.

Columns and labels:
[1] = molecular target: T1, Endothelial lipase (Homo sapiens, UniProt Q9Y5X9); assay: Inhibition of EL in human HT1080 cells using A10070 as substrate preincubated for 20 min followed by DMPG vesicle doped substrate addition and measured at 20 secs interval for 10 mins by fluorescence assay; assay type: cell-based
T1 sequence (Q9Y5X9 whole entry): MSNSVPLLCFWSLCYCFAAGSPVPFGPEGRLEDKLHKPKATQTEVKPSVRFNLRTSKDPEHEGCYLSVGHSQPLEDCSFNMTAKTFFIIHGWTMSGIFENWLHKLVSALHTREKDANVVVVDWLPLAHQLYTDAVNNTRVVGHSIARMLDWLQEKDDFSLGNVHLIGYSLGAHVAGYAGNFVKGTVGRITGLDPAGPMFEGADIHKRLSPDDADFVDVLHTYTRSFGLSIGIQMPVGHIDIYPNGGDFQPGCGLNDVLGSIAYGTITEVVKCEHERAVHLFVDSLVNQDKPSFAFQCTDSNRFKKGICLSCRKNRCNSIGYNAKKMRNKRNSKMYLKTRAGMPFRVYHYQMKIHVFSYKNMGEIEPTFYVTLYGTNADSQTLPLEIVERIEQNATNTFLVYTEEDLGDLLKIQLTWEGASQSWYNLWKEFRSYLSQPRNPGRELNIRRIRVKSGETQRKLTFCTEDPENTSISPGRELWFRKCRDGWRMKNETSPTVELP

[2] = molecular target: T2, Hepatic triacylglycerol lipase (Homo sapiens, UniProt P11150); assay: Inhibition of human HL […] using A10070 as substrate preincubated for 20 min followed by DMPG vesicle doped substrate addition and measured at 20 secs interval for 10 mins by fluorescence assay; assay type: cell-based
T2 sequence (P11150 whole entry): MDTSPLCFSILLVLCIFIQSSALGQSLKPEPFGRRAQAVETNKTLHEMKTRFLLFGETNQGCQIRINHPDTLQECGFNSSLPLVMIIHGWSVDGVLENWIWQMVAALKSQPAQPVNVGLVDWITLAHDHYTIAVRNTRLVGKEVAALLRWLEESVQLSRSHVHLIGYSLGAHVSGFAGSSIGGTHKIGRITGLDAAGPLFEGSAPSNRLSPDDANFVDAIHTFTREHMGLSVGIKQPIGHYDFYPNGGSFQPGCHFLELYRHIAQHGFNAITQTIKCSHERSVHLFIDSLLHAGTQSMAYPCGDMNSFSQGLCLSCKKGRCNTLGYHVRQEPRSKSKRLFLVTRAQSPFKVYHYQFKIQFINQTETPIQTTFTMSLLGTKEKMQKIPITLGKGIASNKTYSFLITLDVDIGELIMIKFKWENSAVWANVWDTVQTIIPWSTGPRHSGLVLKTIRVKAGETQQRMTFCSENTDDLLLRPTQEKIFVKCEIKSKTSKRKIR

[3] = molecular target: T1, Endothelial lipase; assay: Inhibition of EL in human HT1080 cells using D31-POPC-HDL as substrate incubated for 2 hrs in presence of human serum by LC/MS analysis; assay type: cell-based
[4] = molecular target: T1, Endothelial lipase; assay: Inhibition of EL in human HT1080 cells using D31-POPC-HDL as substrate incubated for 2 hrs in presence of mouse plasma by LC/MS analysis; assay type: cell-based
[5] = AUC (0 to 24 hrs) in C57BL/6 mouse at 50 mg/kg, ip administered as nanosuspension measured after 24 hrs by LC-MS/MS analysis; assay type: ADME, organism-based; set-up: dose 50 mg/kg, time < 24 hr, route intraperitoneal; details: in vivo
[6] = species on record: Homo sapiens; assay: Selectivity index, ratio of IC50 for human HL expressed in […] cells to IC50 for EL in human HT1080 cells; assay type: cell-based
[7] = Metabolic stability in human liver microsomes assessed as compound remaining at 0.5 uM incubated for 10 mins; assay type: ADME, Microsome; details: read-out: Stability
[8] = Metabolic stability in rat liver microsomes assessed as compound remaining at 0.5 uM incubated for 10 mins; assay type: ADME, Microsome; details: read-out: Stability
[9] = molecular target: T3, Endothelial lipase (Mus musculus, UniProt Q9WVG5); assay: Inhibition of endothelial lipase in hepatic lipase knock-out mouse plasma; assay type: cell-free
T3 sequence (Q9WVG5 whole entry): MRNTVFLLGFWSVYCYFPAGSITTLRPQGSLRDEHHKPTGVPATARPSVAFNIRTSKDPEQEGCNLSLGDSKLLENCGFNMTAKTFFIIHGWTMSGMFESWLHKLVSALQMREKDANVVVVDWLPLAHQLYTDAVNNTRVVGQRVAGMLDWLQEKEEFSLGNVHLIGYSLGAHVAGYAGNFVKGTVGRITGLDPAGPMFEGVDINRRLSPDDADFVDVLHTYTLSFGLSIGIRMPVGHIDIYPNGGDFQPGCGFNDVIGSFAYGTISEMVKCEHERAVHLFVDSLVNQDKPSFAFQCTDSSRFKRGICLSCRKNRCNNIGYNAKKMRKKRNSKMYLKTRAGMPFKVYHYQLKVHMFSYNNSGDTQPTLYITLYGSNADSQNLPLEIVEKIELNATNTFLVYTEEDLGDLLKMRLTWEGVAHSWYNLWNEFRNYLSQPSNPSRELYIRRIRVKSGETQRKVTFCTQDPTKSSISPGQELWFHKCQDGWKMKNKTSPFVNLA

[10] = Plasma concentration in C57BL/6 mouse at 50 mg/kg, ip administered as nanosuspension measured after 24 hrs by LC-MS/MS analysis; assay type: ADME, organism-based
[11] = Metabolic stability in mouse liver microsomes assessed as compound remaining at 0.5 uM incubated for 10 mins; assay type: ADME, Microsome; details: read-out: Stability
[12] = Cmax in C57BL/6 mouse at 50 mg/kg, ip administered as nanosuspension measured after 24 hrs by LC-MS/MS analysis; assay type: ADME, organism-based; set-up: dose 50 mg/kg, route intraperitoneal; details: in vivo
[13] = test system: Mus musculus; assay: Antihyperlipidemic activity in C57BL/6 mouse assessed as increase in HDL-C level at 50 mg/kg, ip qd administered as nanosuspension for 2 days measured 6 hrs post-last dose by LC-MS/MS analysis relative to control; assay type: functional
[14] = Plasma concentration in EL knock out C57BL/6 mouse at 50 mg/kg, ip qd administered as nanosuspension for 2 days measured 6 hrs post-last dose by LC-MS/MS analysis; assay type: ADME, organism-based
[15] = test system: Mus musculus; assay: Induction of macrophage-mediated [3H]-cholesterol efflux in C57BL/6 mouse at 50 mg/kg, ip qd administered as nanosuspension for 3 days followed by [3H]-cholesterol addition on day 3 and measured after 2.5 hrs relative to control; assay type: functional
[16] = Plasma concentration in C57BL/6 mouse at 50 mg/kg, po measured after 24 hrs by LC-MS/MS analysis; assay type: ADME, organism-based
[17] = test system: Mus musculus; assay: Antihyperlipidemic activity in EL knock out C57BL/6 mouse assessed as increase in HDL-C level at 50 mg/kg, ip qd administered as nanosuspension for 2 days measured 6 hrs post-last dose by LC-MS/MS analysis relative to control; assay type: functional, organism-based
[18] = Plasma concentration in C57BL/6 mouse at 50 mg/kg, ip qd administered as nanosuspension for 2 days measured 6 hrs post-last dose by LC-MS/MS analysis; assay type: ADME, organism-based
[19] = test system: Mus musculus; assay: Antihyperlipidemic activity in hCETP/apoB-100 dual transgenic C57BL/6 mouse assessed as effect on LDL-C level at 50 mg/kg, ip bid administered as nanosuspension for 2 days measured 6 hrs post-last dose by FPLC analysis; assay type: functional, organism-based
[20] = Plasma concentration in HL knock out C57BL/6 mouse at 50 mg/kg, ip qd administered as nanosuspension for 2 days measured 6 hrs post-last dose by LC-MS/MS analysis; assay type: ADME, organism-based
[21] = test system: Mus musculus; assay: Antihyperlipidemic activity in hCETP/apoB-100 dual transgenic C57BL/6 mouse assessed as increase in HDL-C level at 50 mg/kg, ip bid administered as nanosuspension for 2 days measured 6 hrs post-last dose by FPLC analysis relative to control; assay type: functional
[22] = Plasma concentration in C57BL/6 mouse at 50 mg/kg, sc measured after 24 hrs by LC-MS/MS analysis; assay type: ADME, organism-based
[23] = test system: Mus musculus; assay: Antihyperlipidemic activity in HL knock out C57BL/6 mouse assessed as increase in HDL-C level at 50 mg/kg, ip qd administered as nanosuspension for 2 days measured 6 hrs post-last dose by LC-MS/MS analysis relative to control; assay type: functional

SMILES: CN(Cc1nnc(C(=O)c2nc3ccc(-c4ccccc4)cc3s2)o1)S(N)(=O)=O
- pIC50 [1]: 7.70
- pIC50 [2]: 8.52
- pIC50 [3]: 5.15
- pIC50 [4]: 6.00

SMILES: NS(=O)(=O)NCc1nnc(C(=O)c2nc3cc(F)c(C(=O)NCC(F)(F)F)cc3s2)o1
- pIC50 [1]: > 9.30
- AUC(0-t) at 24 h [5]: 58 µM·h
- Ratio IC50 [6]: 8
- remaining at 10 min, 0.5 µM [7]: 87%
- pIC50 [2]: 8.40
- remaining at 10 min, 0.5 µM [8]: > 80%
- pIC50 [9]: 6.70
- concentration at 24 h [10]: 250 nM
- pIC50 [3]: 7.30
- remaining at 10 min, 0.5 µM [11]: > 80%
- Cmax [12]: 7100 nM
- Activity [13]: 37.8 - 38%

SMILES: NS(=O)(=O)NCc1nnc(C(=O)c2nc3cc(-c4ccc(C(=O)NCC(F)(F)F)cc4)c(F)cc3s2)o1
- pIC50 [1]: > 9.30
- remaining at 10 min, 0.5 µM [7]: 98%
- pIC50 [2]: 8.40
- pIC50 [9]: 6.70
- pIC50 [3]: 6.70
- remaining at 10 min, 0.5 µM [11]: 100%

SMILES: NS(=O)(=O)NCc1nnc(C(=O)c2nc3cc(-c4ccc5c(c4)CNC5=O)c(F)cc3s2)o1
- concentration at 24 h [10]: 460 nM
- Activity [13]: 36.9 - 37%

SMILES: NC(=O)NCc1nnc(C(=O)c2nc3ccc(-c4ccccc4)cc3s2)o1
- pIC50 [1]: 7.52
- pIC50 [2]: < 8.00
- pIC50 [3]: 6.00
- pIC50 [4]: 6.00

SMILES: NS(=O)(=O)NCc1nnc(C(=O)c2nc3ccc(-c4ccccc4)cc3s2)o1
- concentration at 6 h [14]: 8500 nM
- Activity [15]: 53%
- concentration at 24 h [10]: 500 nM
- concentration at 24 h [16]: 250 nM
- Activity [17]: inactive
- concentration at 6 h [18]: 520 nM
- Activity [19]: inactive
- concentration at 6 h [20]: 11000 nM
- Activity [21]: 36%
- concentration at 24 h [22]: 190 nM
- Activity [23]: 31.7 - 32%
- Activity [13]: 56%
